Reference: patent US20080107614A1, “PEPTIDE-BASED CONDITIONERS” (priority 2006, published 2008)
pEC50: −log10 of the molar value. Ends that are not written are not given here. * marks the point of attachment. Biotin = O=C1N[C@H]2[C@H](CS[C@H]2CCCCC(=O)*)N1

Assays:
[1] = ELISA of phage-peptide clones on pig skin (specificity control); format: binding; conditions: for Pig Skin A450: phage ELISA, anti-M13 HRP conjugate, mean of at least three replicates
Procedure: (§1) Enzyme-linked immunosorbent assay (ELISA) was used to evaluate the hair-binding specificity of selected phage-peptide clones. Phage-peptide clones identified in Examples 1 and 2 along with a randomly chosen control G-F9, KHGPDLLRSAPR (given as SEQ ID NO:63) were amplified. More than […] (plaque forming units) phage were added to pre-blocked hair surfaces.
(§2) A unique hair or pig skin-bottom 96-well apparatus was created by applying one layer of PARAFILM® under the top 96-well block of a Minifold I Dot-Blot System (Schleicher & Schuell, Inc., Keene, N.H.), adding hair or a layer of hairless pig skin on top of the PARAFILM® cover, and then tightening the apparatus. For each clone to be tested, the hair-covered well was incubated for 1 h at room temperature with 200 μL of blocking buffer, consisting of 2% non-fat dry milk (Schleicher & Schuell, Inc.) in TBS. A second Minifold system with pig skin at the bottom of the wells was treated with blocking buffer simultaneously to serve as a control. The blocking buffer was removed by inverting the systems and blotting them dry with paper towels. The systems were rinsed 6 times with wash buffer consisting of TBST-0.05%. The wells were filled with 200 μL of TBST-0.5% containing 1 mg/mL BSA and then 10 μL (over […]) of purified phage stock was added to each well. The samples were incubated at 37° C. for 15 min with slow shaking. The non-binding phage was removed by washing the wells 10 to 20 times with TBST-0.5%. Then, 100 μL of horseradish peroxidase/anti-M13 antibody conjugate (Amersham USA, Piscataway, N.J.), diluted 1:500 in the blocking buffer, was added to each well and incubated for 1 h at room temperature. The conjugate solution was removed and the wells were washed 6 times with TBST-0.05%. TMB (3,3′,5,5′-tetramethylbenzidine) substrate (200 μL), obtained from Pierce Biotechnology (Rockford, Ill.) was added to each well and the color was allowed to develop for between 5 to 30 min, typically for 10 min, at room temperature. Then, stop solution (200 μL of 2 M H2SO4) was added to each well and the solution was transferred to a 96-well plate and the A450 was measured using a microplate spectrophotometer (Molecular Devices, Sunnyvale, Calif.). The resulting absorbance values, reported as the mean of at least three replicates, and the standard error of the mean (SEM) are given in Table 10.

[2] = ELISA of phage-peptide clones on hair; format: binding, human; conditions: for Hair A450: phage ELISA, anti-M13 HRP conjugate, mean of at least three replicates
Procedure: as §1, §2

[3] = ELISA-based MB50 determination on pig skin; format: binding; conditions: for binding affinity for skin: in words, from MB50; for pEC50: substrate Pig Skin, biotinylated peptide
Excerpt: (§3) The term “MB50” refers to the concentration of the binding peptide that gives a signal that is 50% of the maximum signal obtained in an ELISA-based binding assay as described herein. The MB50 provides an indication of the strength of the binding interaction or affinity of the components of the complex. The lower the value of MB50, the stronger the interaction of the peptide with its corresponding substrate.
(§4) Hair-binding and skin-binding peptides were synthesized by SynPep Inc. (Dublin, Calif.). The peptides were biotinylated by adding a biotinylated lysine residue at the C-terminus of the amino acid binding sequences for detection purposes and an amidated cysteine was added to the C-terminus of the sequence.
(§5) For hair samples, the procedure used was as follows. The setup of the surface specific 96-well system used was the same as that described in Example 5. Briefly, the 96-wells with hair or pig skin surfaces were blocked with blocking buffer (SUPERBLOCK™ from Pierce Chemical Co., Rockford, Ill.) at room temperature for 1 h, followed by six washes with TBST-0.5%, 2 min each, at room temperature. Various concentrations of biotinylated, binding peptide were added to each well, incubated for 15 min at 37° C., and washed six times with TBST-0.5%, 2 min each, at room temperature. Then, streptavidin-horseradish peroxidase (HRP) conjugate (Pierce Chemical Co.) was added to each well (1.0 μg per well), and incubated for 1 h at room temperature. After the incubation, the wells were washed six times with TBST-0.5%, 2 min each at room temperature. Finally, the color development and the measurement were performed as described in Example 5.
For the measurement of MB50 of the peptide-skin complexes, the following procedure was used. First, the pigskin was treated to block the endogenous biotin in the skin. This was done by adding streptavidin to the blocking buffer. After blocking the pigskin sample, the skin was treated with D-biotin to block the excess streptavidin binding sites. The remaining steps were identical to those used for the hair samples.
(§6) The results were plotted as A450 versus the concentration of peptide using GraphPad Prism 4.0 (GraphPad Software, Inc., San Diego, Calif.).

[4] = Peptide competition ELISA with D21 phage; format: binding, human
Procedure: The purpose of this Example was to test the peptide binding site specificity and affinity of the hair-binding peptide D21 using a competition ELISA. The ELISA assay only detects phage particles that remain bound to the hair surface.
The synthetic hair-binding peptide D21, given as SEQ ID NO:46 was synthesized by SynPep (Dublin, Calif.). As a control, an unrelated synthetic skin-binding peptide (SK-1), given as SEQ ID NO:61, was added to the system. The experimental conditions were similar to those used in the ELISA method described in Example 5. Briefly, 100 μL of Binding Buffer (1×TBS with 0.1% Tween® 20 and 1 mg/mL BSA) and 10^11 pfu of the pure D21 phage particles were added to each well of the 96-well filter plate, which contained a sample of normal hair. The synthetic peptide (100 μg) was added to each well (corresponding to concentration of 0.8 mM). The reactions were carried out at room temperature for 1 h with gentle shaking, followed by five washes with TBST-0.5%. The remaining steps were identical to the those used in the ELISA method described in Example 5. Each individual ELISA test was performed in triplicate; the values in Table 11 are the means of the triplicate determinations.

[5] = Titer-based assay of hair-binding phage clones; parameters: species or system human; conditions: output pfu retained by 10 mg of normal hair; input 10^14 pfu; acid-eluted phage
Procedure: Phage clones displaying specific peptides were used for comparing the binding characteristics of different peptide sequences. A titer-based assay was used to quantify the phage binding. This assay measures the output pfu retained by 10 mg of hair surfaces, having a signal to noise ratio of 10^3 to 10^4. The input for all the phage clones was 10^14 pfu. It should be emphasized that this assay measures the peptide-expressing phage particle, rather than peptide binding.
Normal hairs were cut into 0.5 cm lengths and 10 mg of the cut hair was placed in each well of a 96-well filter plate (Qiagen). Then, the wells were filled with blocking buffer containing 1 mg/mL BSA in TBST-0.5% and incubated for 1 h at 4° C. The hairs were washed 5 times with TBST-0.5%. The wells were then filled with 1 mL of TBST-0.5% containing 1 mg/mL BSA and then purified phage clones (10^14 pfu) were added to each well. The hair samples were incubated for 15 min at room temperature and then washed 10 times with TBST-0.5%. The hairs were transferred to a clean well and 1.0 mL of a non-specific elution buffer, consisting of 1 mg/mL BSA in 0.2 M Glycine-HCl at pH 2.2, was added to each well. The samples were incubated for 10 min and then 160 μL of neutralization buffer (1 M Tris-HCl, pH 9.2) was added to each well. The eluted phage from each well were transferred to a new tube for titering and sequencing analysis.
To titer the bound phage, the eluted phage was diluted with SM buffer to prepare 10-fold serial dilutions of 10^1 to 10^8. A 10 μL aliquot of each dilution was incubated with 200 μL of mid-log phase E. coli ER2738 (New England BioLabs), and grown in LB medium for 20 min and then mixed with 3 mL of agarose top (LB medium with 5 mM MgCl2, and 0.7% agarose) at 45° C. This mixture was spread onto a LB medium/IPTG/Xgal (5-bromo-4-chloro-3-indolyl-β-D-galactopyranoside) plate (LB medium with 15 g/L agar, 0.05 g/L IPTG, and 0.04 g/L Xgal) and incubated overnight at 37° C.

[6] = ELISA-based MB50 determination on hair; format: binding, human; conditions: for pEC50: biotinylated peptide; for binding affinity for respective substrate (hair): in words, from MB50
Excerpt: as §3, §4, §5, §6

[7] = in words, from the data in Table 10

| Substance | Pig Skin A450 [1] | Hair A450 [2] | Phage Titer [5] | other results |
| --- | --- | --- | --- | --- |
| TAATTSP (displayed on phage; Hair-binding peptide) [Clone B1] | 0.127 | 0.42 | – | – |
| TDMQAPTKSYSN [Clone C5] | 0.047 | 0.548 | – | – |
| TPALDGLRQPLR [Clone C18] | 0.132 | 0.34 | – | – |
| KHGPDLLRSAPR [Clone G-F9, reference compound] | −0.137 | 0.074 | – | – |
| LGIPQNL (displayed on phage; Hair-binding peptide) [Clone D39] | 0.086 | 0.685 | – | – |
| Binding Peptide D21: biotinylated hair-binding peptide D21 (binding sequence SEQ ID NO:46) (RTNAADHPAAVTK(Biotin)C-NH2; N-terminus assumed; SMILES CC(C)[C@H](NC(=O)[C@H](C)NC(=O)[C@H](C)NC(=O)[C@@H]1CCCN1C(=O)[C@H](Cc1c[nH]cn1)NC(=O)[C@H](CC(=O)O)NC(=O)[C@H](C)NC(=O)[C@H](C)NC(=O)[C@H](CC(N)=O)NC(=O)[C@@H](NC(=O)[C@@H](N)CCCNC(=N)N)[C@@H](C)O)C(=O)N[C@H](C(=O)N[C@@H](CCCCNC(=O)CCCC[C@@H]1SC[C@@H]2NC(=O)N[C@@H]21)C(=O)N[C@@H](CS)C(N)=O)[C@@H](C)O) | – | – | – | binding affinity for skin [3]: relatively low |
| RTNAADHPAAVT [Clone D21] | – | – | – | A450 ([4]; 10^11 pfu D21 phage on normal hair, synthetic peptide 100 μg per well (0.8 mM) where added, mean of triplicate): 1.878 |
| DLHTVYH (displayed on phage; Hair-binding peptide) [Clone A] | – | – | 7.50 × 10^4 | – |
| KHPTYRQ (displayed on phage; Hair-binding peptide) [Clone H] | – | – | 1.30 × 10^6 | – |
| EQISGSLVAAPW [Clone A5] | 0.256 | 0.431 | – | – |
| SLNWVTIPGPKI [Clone C10] | 0.032 | 0.542 | – | – |
| GPHDTSSGGVRPNLHHTSKKEKRENRKVPFYSHSVTSRGNV [Clone G] | – | – | 1.67 × 10^8 | – |
| GPHDTSSGGVRPNLHHTSKKEKRENRKVPFYSHSVTSRGNV [Clone D5] | 0.104 | 0.652 | – | – |
| I-B5 (TPPELLHGDPRS; Hair-binding peptide) [listing 1 of 2 here] | – | – | – | pEC50 ([6]; substrate Normal and Bleached Hair): 6.52; pEC50 [3]: < 4.00 |
| LPRIANTWSPS [Clone F35] | – | – | – | binding affinity for respective substrate (hair) [6]: high; pEC50 ([6]; substrate Bleached Hair): 5.52 |
| MPKYYLQ (displayed on phage; Hair-binding peptide) [Clone J] | – | – | 1.24 × 10^6 | – |
| AKTHKHPAPSYS [Clone C13] | 0.024 | 0.375 | – | – |
| HPVWPAI (displayed on phage; Hair-binding peptide) [Clone D] | – | – | 8.20 × 10^4 | – |
| NSPGYQADSVAIG [Clone D30] | 0.287 | 0.414 | – | – |
| RTNAADHPAAVT [Peptide D21] | 0.04 | 1.051 | – | competition with the phage clone D21 for the same binding sites on the hair surface ([4]; in words): does compete; affinity for pig skin [1, 7]: very low; binding affinity for respective substrate (hair) [6]: high; pEC50 ([6]; substrate Normal Hair): 5.70; binding affinity for hair [2, 7]: very strong; selectivity for hair compared to pig skin [2, 7]: highest; pEC50 [3]: 4.40 |
| HLTVPWRGGGSAVPFYSHSQITLPNH [Clone F] | – | – | 1.11 × 10^6 | – |
| TPFHSPENAPGS [SK-1] | – | – | – | binding affinity for skin [3]: high; pEC50 [3]: 6.15 |
| MHAHSIA (displayed on phage; Hair-binding peptide) [Clone A36] | 0.173 | 0.585 | – | – |
| MPLYYLQ (displayed on phage; Hair-binding peptide) [Clone E] | – | – | 1.70 × 10^5 | – |
| I-B5 (TPPELLHGDPRS; Hair-binding peptide) [listing 2 of 2 here] | – | – | – | binding affinity for respective substrate (hair) [6]: high; binding affinity for skin [3]: relatively low |
| HIKPPTR (displayed on phage; Hair-binding peptide) [Clone B] | – | – | 1.21 × 10^5 | – |
